Measured values published in PubChem BioAssay (NCI).
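Cells were grown in 96-well plates and exposed to each compound for 48 hours at five concentrations; endpoints were interpolated linearly between bracketing concentrations, or set to the highest concentration if not reached. TGI denotes the concentration required for complete inhibition of growth.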

How the values were obtained:
Experiment in all cases: DTP human tumour cell line panel, 48 h
HT29 colon = tested on: HT29 colon
NCI/ADR-RES ovarian = tested on: NCI/ADR-RES ovarian
EKVX NSCLC = tested on: EKVX NSCLC
RXF 393 renal = tested on: RXF 393 renal
786-0 renal = tested on: 786-0 renal
SN12C renal = tested on: SN12C renal
SK-MEL-28 melanoma = tested on: SK-MEL-28 melanoma
K-562 leukemia = tested on: K-562 leukemia
HOP-62 NSCLC = tested on: HOP-62 NSCLC
CAKI-1 renal = tested on: CAKI-1 renal
A549 NSCLC = tested on: A549 NSCLC
SF-539 CNS = tested on: SF-539 CNS
UACC-62 melanoma = tested on: UACC-62 melanoma
BT-549 breast = tested on: BT-549 breast
SF-268 CNS = tested on: SF-268 CNS
MOLT-4 leukemia = tested on: MOLT-4 leukemia
NCI-H23 lung = tested on: NCI-H23 lung
OVCAR-5 ovarian = tested on: OVCAR-5 ovarian
LOX IMVI melanoma = tested on: LOX IMVI melanoma
SNB-19 CNS = tested on: SNB-19 CNS
HCT-15 colon = tested on: HCT-15 colon
A498 renal = tested on: A498 renal
COLO 205 colon = tested on: COLO 205 colon
OVCAR-3 ovarian = tested on: OVCAR-3 ovarian
NCI-H522 lung = tested on: NCI-H522 lung
SK-OV-3 ovarian = tested on: SK-OV-3 ovarian
SK-MEL-5 melanoma = tested on: SK-MEL-5 melanoma
U251 CNS = tested on: U251 CNS
SF-295 CNS = tested on: SF-295 CNS
IGROV1 ovarian = tested on: IGROV1 ovarian
UACC-257 melanoma = tested on: UACC-257 melanoma
DU-145 prostate = tested on: DU-145 prostate
TK-10 renal = tested on: TK-10 renal
MALME-3M melanoma = tested on: MALME-3M melanoma
OVCAR-4 ovarian = tested on: OVCAR-4 ovarian
OVCAR-8 ovarian = tested on: OVCAR-8 ovarian
MDA-MB-231 breast = tested on: MDA-MB-231 breast
MDA-MB-435 = tested on: MDA-MB-435
HL-60(TB) leukemia = tested on: HL-60(TB) leukemia
MCF7 breast = tested on: MCF7 breast
SR leukemia = tested on: SR leukemia
HOP-92 NSCLC = tested on: HOP-92 NSCLC
MDA-N = tested on: MDA-N
M14 melanoma = tested on: M14 melanoma
ACHN renal = tested on: ACHN renal
KM12 colon = tested on: KM12 colon
UO-31 renal = tested on: UO-31 renal
CCRF-CEM leukemia = tested on: CCRF-CEM leukemia
NCI-H226 lung = tested on: NCI-H226 lung
HS 578T breast = tested on: HS 578T breast
PC-3 prostate = tested on: PC-3 prostate
T-47D breast = tested on: T-47D breast
SNB-75 CNS = tested on: SNB-75 CNS
HCT-116 colon = tested on: HCT-116 colon
NCI-H460 lung = tested on: NCI-H460 lung
SW-620 colon = tested on: SW-620 colon
SK-MEL-2 melanoma = tested on: SK-MEL-2 melanoma
RPMI-8226 leukemia = tested on: RPMI-8226 leukemia

Measured: TGI

NC(=O)C(c1ccccc1)N1OC2C(=O)N(Cc3ccccc3)C(=O)C2C1c1cccc(Oc2ccc(Cl)cc2)c1 (configuration not stated)
48.8 µM: SK-MEL-2 melanoma
32 µM: COLO 205 colon
43.1 µM: OVCAR-3 ovarian
69.4 µM: MCF7 breast
90.1 µM: NCI-H460 lung
98.9 µM: MOLT-4 leukemia
32.3 µM: UACC-62 melanoma
53 µM: RXF 393 renal
99.5 µM: K-562 leukemia
54.1 µM: SR leukemia
35.6 µM: HT29 colon
49.7 µM: MDA-N
85.6 µM: U251 CNS
31.9 µM: CAKI-1 renal
39.9 µM: ACHN renal
47.2 µM: SF-539 CNS
50 µM: 786-0 renal
7.88 µM: UO-31 renal
67.2 µM: EKVX NSCLC
34.2 µM: LOX IMVI melanoma
44.5 µM: HCT-116 colon
95.6 µM: TK-10 renal
30.7 µM: SN12C renal
30.4 µM: SK-MEL-5 melanoma
51.2 µM: HL-60(TB) leukemia
69.5 µM: M14 melanoma
not listed: RPMI-8226 leukemia
> 100 µM: all other assays above

Oc1ccc(Cl)cc1-c1[nH]c(=S)nc(-c2ccccc2)c1Cl
> 87.8 µM: SF-295 CNS
97.9 µM: U251 CNS
70.1 µM: SNB-75 CNS
> 84.9 µM: HOP-62 NSCLC
> 31.6 µM: HT29 colon | NCI-H522 lung
97.2 µM: MDA-MB-231 breast
not listed: EKVX NSCLC | SF-539 CNS | UACC-62 melanoma
> 100 µM: all other assays above
